# Legend:
# [1] = target: Sigma receptor (Cavia porcellus); test: Binding affinity against sigma sites in guinea pig membrane using [3H]DTG as the radioligand
# [2] = target: Sigma non-opioid intracellular receptor 1 (Cavia porcellus); test: Binding affinity against sigma sites in guinea pig membrane using [3H](+)-3-PPP as the radioligand
structure (smiles),measurement,setting,value
"c1ccc(CCCCCN2C3CCC2c2c([nH]c4ccccc24)C3)cc1 (configuration not stated) [1-[9,15-diazatetracyclo[10.2.1.02,10.03,8]pentadeca-2(10),3,5,7-tetraen-15-yl]-5-phenylpentane]",IC50,[1],107 nM
same,IC50,[2],348 nM
"c1ccc(OCCCCN2C3CCC2c2c([nH]c4ccccc24)C3)cc1 (configuration not stated) [1-[9,15-diazatetracyclo[10.2.1.02,10.03,8]pentadeca-2(10),3,5,7-tetraen-15-yl]-4-phenoxybutane]",IC50,[1],88 nM
same,IC50,[2],205 nM
"Clc1ccc(OCCN2C3CCC2c2c([nH]c4ccccc24)C3)cc1 (configuration not stated) [1-(4-chlorophenoxy)-2-[9,15-diazatetracyclo[10.2.1.02,10.03,8]pentadeca-2(10),3,5,7-tetraen-15-yl]ethane]",IC50,[1],251 nM
same,IC50,[2],4880 nM
"c1csc(CCCCN2C3CCC2c2c([nH]c4ccccc24)C3)c1 (configuration not stated) [1-[9,15-diazatetracyclo[10.2.1.02,10.03,8]pentadeca-2(10),3,5,7-tetraen-15-yl]-4-(2-thienyl)butane]",IC50,[1],21 nM
same,IC50,[2],98 nM
"c1ccc(OCCCN2C3CCC2c2c([nH]c4ccccc24)C3)cc1 (configuration not stated) [1-[9,15-diazatetracyclo[10.2.1.02,10.03,8]pentadeca-2(10),3,5,7-tetraen-15-yl]-3-phenoxypropane]",IC50,[1],132 nM
same,IC50,[2],262 nM
"c1ccc(CCCCN2C3CCC2c2c(n(Cc4ccccc4)c4ccccc24)C3)cc1 (configuration not stated) [1-[9-benzyl-9,15-diazatetracyclo[10.2.1.02,10.03,8]pentadeca-2(10),3,5,7-tetraen-15-yl]-4-phenylbutane]",IC50,[1],267 nM
same,IC50,[2],396 nM
"OCCCN1C2CCC1c1c([nH]c3ccc(F)cc13)C2 (configuration not stated) [3-[5-fluoro-9,15-diazatetracyclo[10.2.1.02,10.03,8]pentadeca-2(10),3,5,7-tetraen-15-yl]-1-propanol]",IC50,[1],317 nM
same,IC50,[2],1380 nM
"CC(C)n1c2c(c3ccccc31)C1CCC(C2)N1CCCCc1ccccc1 (configuration not stated) [1-[9-isopropyl-9,15-diazatetracyclo[10.2.1.02,10.03,8]pentadeca-2(10),3,5,7-tetraen-15-yl]-4-phenylbutane]",IC50,[1],231 nM
same,IC50,[2],705 nM
"Fc1ccc2[nH]c3c(c2c1)C1CCC(C3)N1Cc1ccccc1 (configuration not stated) [15-benzyl-5-fluoro-9,15-diazatetracyclo[10.2.1.02,10.03,8]pentadeca-2(10),3,5,7-tetraene]",IC50,[1],86 nM
same,IC50,[2],908 nM
"O=C1c2ccccc2C(=O)N1CCCN1C2CCC1c1c([nH]c3ccc(F)cc13)C2 (configuration not stated) [2-{3-[5-fluoro-9,15-diazatetracyclo[10.2.1.02,10.03,8]pentadeca-2(10),3,5,7-tetraen-15-yl]propyl}-1,3-isoindolinedione]",IC50,[1],836 nM
same,IC50,[2],3330 nM
"c1ccc(OCCN2C3CCC2c2c([nH]c4ccccc24)C3)cc1 (configuration not stated) [1-[9,15-diazatetracyclo[10.2.1.02,10.03,8]pentadeca-2(10),3,5,7-tetraen-15-yl]-2-phenoxyethane]",IC50,[1],110 nM
same,IC50,[2],534 nM
